Assay results taken from patent US8063065B2, “Azaindazole compounds as CCR1 receptor antagonists” (Boehringer Ingelheim International GmbH, priority 2008, dated 2011).

What follows are compounds tested against T1, CCR1 (Homo sapiens, UniProt P32246) (assay: Method A: calcium flux in CCR1 transfected cells (Fluo-4 NW, FLIPR TETRA), block of the CCR1/MIP-1α interaction). Settings: Method A: Fluo-4 NW, MIP-1 alpha at EC80.
T1 sequence (P32246 1-355): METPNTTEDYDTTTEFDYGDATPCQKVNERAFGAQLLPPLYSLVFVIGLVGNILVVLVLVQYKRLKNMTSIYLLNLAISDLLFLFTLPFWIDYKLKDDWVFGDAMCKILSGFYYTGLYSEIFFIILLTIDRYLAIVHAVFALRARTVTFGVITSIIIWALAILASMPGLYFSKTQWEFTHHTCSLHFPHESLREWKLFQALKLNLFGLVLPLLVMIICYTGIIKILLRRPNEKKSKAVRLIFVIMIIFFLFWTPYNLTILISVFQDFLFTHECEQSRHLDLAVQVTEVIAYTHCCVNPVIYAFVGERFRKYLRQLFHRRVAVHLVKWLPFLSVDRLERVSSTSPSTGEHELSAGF
Format: cell-based
Description: Compounds are assessed for the ability to block the interaction of CCR1 and MIP-1α in a functional cellular assay measuring calcium flux in CCR1 transfected cells.
Method A: Non-adherent cells purchased from Chemicon Corporation (HTS005C), stably expressing recombinant CCR1 and G-alpha-16 are grown in RPMI 1640 medium (Mediatech 10-080-CM) supplemented with 10% heat-inactivated FBS, 0.4 mg/mL Geneticin and penicillin/streptomycin. On the day of the assay, the cells are transferred to a beaker and dye-loaded in bulk using a Fluo-4 NW Calcium Assay Kit with probenecid (Invitrogen F36205) at 0.8E6 cells/mL for 1 hour at room temperature. After 1 hour, they are seeded in a 384-well tissue culture-treated plate at a density of 20,000 cells/well. Appropriately diluted test compound is added to the well to achieve a top concentration of 3,000 nM (diluted 4-fold with 10 doses total). The final concentration of DMSO is 1%. The buffer is HBSS (Invitrogen 14025) with 20 mM HEPES at pH 7.4. The cells are allowed to incubate 1 hour in the dark at room temperature. The plates are transferred to the FLIPR TETRA where MIP-1 alpha in 1% BSA is added at the EC80 final concentration. Wells+/−MIP-1 alpha containing diluted DMSO instead of compound serve as the controls. Intracellular calcium flux is recorded on the FLIPR TETRA, using excitation at 470/495 nm and emission at 515/575 nm. Data are analyzed using Activity Base software.
For O=C(NCc1ccnc(Br)c1)c1cncc2c1cnn2-c1ccc(F)cc1 [1-(4-Fluorophenyl)-1H-pyrazolo[3,4-c]pyridine-4-carboxylic acid (2-bromopyridin-4-ylmethyl)-amide], the IC50 was 2 nM. CCC[C@H](NC(=O)c1cncc2c1cnn2-c1ccc(F)cc1)c1cncc(S(N)(=O)=O)c1 [1-(4-Fluorophenyl)-1H-pyrazolo[3,4-c]pyridine-4-carboxylic acid [(S)-1-(5-sulfamoyl-pyridin-3-yl)-butyl]-amide] showed an IC50 of 0.3 nM. With C[C@H](NC(=O)c1cncc2c1cnn2-c1ccc(F)cc1)c1cncc(Br)c1 [1-(4-Fluorophenyl)-1H-pyrazolo[3,4-c]pyridine-4-carboxylic acid [(S)-1-(5-bromopyridin-3-yl)-ethyl]-amide] the IC50 was 1 nM. For CCCC(NC(=O)c1cncc2c1cnn2-c1ccc(F)cc1)c1cncc(S(C)(=O)=O)c1 (stereo not shown) [1-(4-Fluorophenyl)-1H-pyrazolo[3,4-c]pyridine-4-carboxylic acid [1-(5-methanesulfonyl-pyridin-3-yl)-butyl]-amide], the IC50 was 0.6 nM. For CCC[C@H](NC(=O)c1cncc2c1cnn2-c1ccc(F)cc1)c1cncc(S(=O)(=O)NC)c1 [1-(4-Fluorophenyl)-1H-pyrazolo[3,4-c]pyridine-4-carboxylic acid [(S)-1-(5-methylsulfamoyl-pyridin-3-yl)-butyl]-amide], the IC50 was 0.2 nM. Compound CS(=O)(=O)Nc1ccc(CNC(=O)c2cncc3c2cnn3-c2ccc(F)cc2)cc1 [1-(4-Fluorophenyl)-1H-pyrazolo[3,4-c]pyridine-4-carboxylic acid 4-methanesulfonylamino-benzylamide] has an IC50 of 7 nM. CC(NC(=O)c1cncc2c1cnn2-c1ccc(F)cc1)c1ccc(Br)nc1 (stereo not shown) [1-(4-Fluorophenyl)-1H-pyrazolo[3,4-c]pyridine-4-carboxylic acid [1-(6-bromopyridin-3-yl)-ethyl]-amide] gave an IC50 of 30 nM. Work on C[C@H](NC(=O)c1cncc2c1cnn2-c1ccc(Cl)cc1)c1cncc(Br)c1 [1-(4-Chlorophenyl)-1H-pyrazolo[3,4-c]pyridine-4-carboxylic acid [(S)-1-(5-bromopyridin-3-yl)-ethyl]-amide] yielded an IC50 of 2 nM. For C=CC[C@@H](NC(=O)c1cncc2c1cnn2-c1ccc(F)cc1)c1ccnc(Br)c1 [1-(4-Fluorophenyl)-1H-pyrazolo[3,4-c]pyridine-4-carboxylic acid [(R)-1-(2-bromopyridin-4-yl)-but-3-enyl]-amide], the IC50 was 17 nM. For CC(C)NS(=O)(=O)Cc1ccc(CNC(=O)c2cncc3c2cnn3-c2ccc(F)cc2)cc1 [1-(4-Fluorophenyl)-1H-pyrazolo[3,4-c]pyridine-4-carboxylic acid 4-(isopropylsulfamoyl-methyl)-benzylamide], the IC50 was 3 nM. Compound O=C(NCc1cccc(C(F)(F)F)c1)c1c[n+]([O-])cc2c1cnn2-c1ccc(F)cc1 [1-(4-Fluorophenyl)-6-oxy-1H-pyrazolo[3,4-c]pyridine-4-carboxylic acid 3-trifluoromethyl-benzylamide] has an IC50 of 6 nM. For CCCC(NC(=O)c1cncc2c1cnn2-c1ccc(F)cc1)c1cncc(Br)c1 (stereo not shown) [1-(4-Fluorophenyl)-1H-pyrazolo[3,4-c]pyridine-4-carboxylic acid [1-(5-bromopyridin-3-yl)-butyl]-amide], the IC50 was 0.4 nM. Compound O=C(NCc1cc(Cl)cc(Cl)c1)c1cncc2c1cnn2-c1ccc(F)cc1 [1-(4-Fluorophenyl)-1H-pyrazolo[3,4-c]pyridine-4-carboxylic acid 3,5-dichloro-benzylamide] has an IC50 of 7 nM. CN(C1CCNCC1)S(=O)(=O)c1ccc(CNC(=O)c2cncc3c2cnn3-c2ccc(F)cc2)cc1 [1-(4-Fluorophenyl)-1H-pyrazolo[3,4-c]pyridine-4-carboxylic acid 4-(methyl-piperidin-4-yl-sulfamoyl)-benzylamide] showed an IC50 of 2 nM. CN(CCO)S(=O)(=O)c1ccc(CNC(=O)c2cncc3c2cnn3-c2ccc(F)cc2)cc1 [1-(4-Fluorophenyl)-1H-pyrazolo[3,4-c]pyridine-4-carboxylic acid 4-[(2-hydroxy-ethyl)-methyl-sulfamoyl]-benzylamide] showed an IC50 of 1 nM. In the case of CCCC(NC(=O)c1cncc2c1cnn2-c1ccc(Cl)cc1)c1ccc(S(C)(=O)=O)nc1 (stereo not shown) [1-(4-Chlorophenyl)-1H-pyrazolo[3,4-c]pyridine-4-carboxylic acid [1-(6-methanesulfonyl-pyridin-3-yl)-butyl]-amide], the IC50 is reported as 1 nM. O=C(NCc1ccc(S(=O)(=O)N2CCC(O)C2)cc1)c1cncc2c1cnn2-c1ccc(Cl)cc1 (stereo not shown) [1-(4-Chlorophenyl)-1H-pyrazolo[3,4-c]pyridine-4-carboxylic acid 4-(3-hydroxy-pyrrolidine-1-sulfonyl)-benzylamide] gave an IC50 of 2 nM. In the case of CN(c1ccc(CNC(=O)c2cncc3c2cnn3-c2ccc(F)cc2)cn1)S(C)(=O)=O [1-(4-Fluorophenyl)-1H-pyrazolo[3,4-c]pyridine-4-carboxylic acid [6-(methanesulfonyl-methyl-amino)-pyridin-3-ylmethyl]-amide], the IC50 is reported as 5 nM. For CCCC(NC(=O)c1cncc2c1cnn2-c1ccc(F)cc1)c1cncc(S(=O)(=O)CCC(=O)OC)c1 (stereo not shown) [3-[5-(1-{[1-(4-Fluorophenyl)-1H-pyrazolo[3,4-c]pyridine-4-carbonyl]-amino}-butyl)-pyridine-3-sulfonyl]-propionic acid methyl ester], the IC50 was 3 nM. For CCC[C@H](NC(=O)c1cncc2c1cnn2-c1ccc(F)cc1)c1cncc(S(=O)(=O)O)c1 [5-((S)-1-{[1-(4-Fluorophenyl)-1H-pyrazolo[3,4-c]pyridine-4-carbonyl]-amino}-butyl)-pyridine-3-sulfonic acid], the IC50 was 4 nM. O=C1CN(S(=O)(=O)c2ccc(CNC(=O)c3cncc4c3cnn4-c3ccc(F)cc3)cc2)CCN1 [1-(4-Fluorophenyl)-1H-pyrazolo[3,4-c]pyridine-4-carboxylic acid 4-(3-oxo-piperazine-1-sulfonyl)-benzylamide] showed an IC50 of 3 nM. With COC(=O)CNS(=O)(=O)c1ccc(CNC(=O)c2cncc3c2cnn3-c2ccc(F)cc2)cc1 [[4-({[1-(4-Fluorophenyl)-1H-pyrazolo[3,4-c]pyridine-4-carbonyl]-amino}-methyl)-benzenesulfonylamino]-acetic acid methyl ester] the IC50 was 3 nM. CC[C@H](NC(=O)c1cncc2c1cnn2-c1ccc(F)cc1)c1cncc(Br)c1 [1-(4-Fluorophenyl)-1H-pyrazolo[3,4-c]pyridine-4-carboxylic acid [(S)-1-(5-bromopyridin-3-yl)-propyl]-amide] gave an IC50 of 0.2 nM. Compound O=C(NCc1ccc(S(=O)(=O)N2CCC(O)CC2)cc1)c1cncc2c1cnn2-c1ccc(F)cc1 [1-(4-Fluorophenyl)-1H-pyrazolo[3,4-c]pyridine-4-carboxylic acid 4-(4-hydroxy-piperidine-1-sulfonyl)-benzylamide] has an IC50 of 2 nM. For CCCC(NC(=O)c1cncc2c1cnn2-c1ccc(Cl)cc1)c1ccnc(Br)c1 (stereo not shown) [1-(4-Chlorophenyl)-1H-pyrazolo[3,4-c]pyridine-4-carboxylic acid [1-(2-bromopyridin-4-yl)-butyl]-amide], the IC50 was 2 nM. CN1CCN(S(=O)(=O)Cc2ccc(CNC(=O)c3cncc4c3cnn4-c3ccc(F)cc3)cc2)CC1 [1-(4-Fluorophenyl)-1H-pyrazolo[3,4-c]pyridine-4-carboxylic acid 4-(4-methyl-piperazine-1-sulfonylmethyl)-benzylamide] gave an IC50 of 39 nM. O=C(NCc1ccc(CS(=O)(=O)N2CCCCC2)cc1)c1cncc2c1cnn2-c1ccc(F)cc1 [1-(4-Fluorophenyl)-1H-pyrazolo[3,4-c]pyridine-4-carboxylic acid 4-(piperidine-1-sulfonylmethyl)-benzylamide] showed an IC50 of 6 nM. Compound COc1cc(CNC(=O)c2cncc3c2cnn3-c2ccc(F)cc2)ccn1 [1-(4-Fluorophenyl)-1H-pyrazolo[3,4-c]pyridine-4-carboxylic acid (2-methoxy-pyridin-4-ylmethyl)-amide] has an IC50 of 2 nM. With O=C(NCc1ccc(CS(=O)(=O)N2CCOCC2)cc1)c1cncc2c1cnn2-c1ccc(F)cc1 [1-(4-Fluorophenyl)-1H-pyrazolo[3,4-c]pyridine-4-carboxylic acid 4-(morpholine-4-sulfonylmethyl)-benzylamide] the IC50 was 20 nM. CCC(NC(=O)c1cncc2c1cnn2-c1ccc(F)cc1)c1ccc(S(C)(=O)=O)nc1 (stereo not shown) [1-(4-Fluorophenyl)-1H-pyrazolo[3,4-c]pyridine-4-carboxylic acid [1-(6-methanesulfonyl-pyridin-3-yl)-propyl]-amide] gave an IC50 of 3 nM. Work on CS(=O)(=O)c1ccc(CNC(=O)c2cncc3c2cnn3-c2ccc(F)cc2)cc1O [1-(4-Fluorophenyl)-1H-pyrazolo[3,4-c]pyridine-4-carboxylic acid 3-hydroxy-4-methanesulfonyl-benzylamide] yielded an IC50 of 24 nM.
